This note sets out measurements from ChEMBL document CHEMBL1134332, “Design of remarkably simple, yet potent urea-based inhibitors of glutamate carboxypeptidase II (NAALADase)” (J Med Chem, 2001).

The structures appear in SMILES notation. Active and inactive are the calls of the source. The rule behind the calls is not given here. Peptide text beside a SMILES is read from it.

Assay [1] has as its target T1, Glutamate carboxypeptidase 2 (Rattus norvegicus, UniProt P70627). Kind of assay: Inhibitory activity against expressed rat Glutamate carboxypeptidase IIusing a substrate concentration of 5 uM.
The target of assay [2] is T1, Glutamate carboxypeptidase 2. Kind of assay: Inhibitory activity against expressed rat Glutamate carboxypeptidase II, using a substrate concentration of 5 uM.
The target in assay [3] is Glutamate carboxypeptidase 2 (Rattus norvegicus) (UniProt P70627). Kind of assay: Percentage inhibition at 1 uM against rat Glutamate carboxypeptidase II using a substrate concentration of 5 uM.
For assay [4] the target is unchanged. Kind of assay: Percentage inhibition at 1 uM against rat Glutamate carboxypeptidase II, using a substrate concentration of 5 uM.
Assay [5] has the same target. Briefly: Percentage inhibition at 100 uM.
For assay [6] the target is unchanged. Kind of assay: Percentage inhibition at 1 uM; IA means inactive.

What is called IC50 is the concentration needed to halve the response being measured. As a reminder, the inhibition is the drop in the measured response relative to a control, in per cent.

Glutamate carboxypeptidase 2 (Rattus norvegicus), sequence (P70627 whole entry, looked up): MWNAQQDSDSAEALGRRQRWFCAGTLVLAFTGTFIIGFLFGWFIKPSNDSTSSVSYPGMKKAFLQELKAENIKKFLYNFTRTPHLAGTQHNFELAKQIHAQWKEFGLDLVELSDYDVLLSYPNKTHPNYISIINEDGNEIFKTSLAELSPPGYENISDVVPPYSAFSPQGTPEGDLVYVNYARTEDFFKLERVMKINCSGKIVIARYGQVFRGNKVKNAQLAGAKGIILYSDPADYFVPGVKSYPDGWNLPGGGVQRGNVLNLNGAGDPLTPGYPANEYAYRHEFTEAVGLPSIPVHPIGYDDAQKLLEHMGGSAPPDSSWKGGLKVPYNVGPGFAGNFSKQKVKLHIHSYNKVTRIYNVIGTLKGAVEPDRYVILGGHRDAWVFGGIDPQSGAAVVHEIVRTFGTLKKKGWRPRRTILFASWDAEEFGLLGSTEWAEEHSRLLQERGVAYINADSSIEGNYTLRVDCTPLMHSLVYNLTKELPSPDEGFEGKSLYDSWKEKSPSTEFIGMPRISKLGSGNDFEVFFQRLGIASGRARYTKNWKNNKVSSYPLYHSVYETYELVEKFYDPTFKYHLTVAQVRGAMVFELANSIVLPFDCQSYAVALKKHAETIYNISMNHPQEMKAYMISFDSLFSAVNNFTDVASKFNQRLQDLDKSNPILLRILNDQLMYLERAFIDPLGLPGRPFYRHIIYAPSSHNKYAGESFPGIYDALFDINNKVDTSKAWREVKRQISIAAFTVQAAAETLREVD
T1 sequence (P70627 whole entry): as the sequence (P70627 whole entry, looked up) above

In assay [1], `N[C@@H](CC(=O)O)C(=O)N[C@@H](CCC(=O)O)C(=O)O` (H-Asp-Glu-OH) returned a 50% inhibitory concentration (IC50) of 2400 nM. This counts as single-digit micromolar.

Regarding `N[C@@H](CCC(=O)O)C(=O)N[C@@H](CCC(=O)O)C(=O)O` (H-Glu-Glu-OH), half-maximal inhibition in assay [2] (IC50) was put at 750 nM. This lies in the sub-micromolar range. As to `O=C(O)CC[C@H](NC(=O)N[C@@H](CS)C(=O)O)C(=O)O`, in assay [2], the midpoint of inhibition, the IC50, lay at 6.9 nM.

Turning to `O=C(O)CC[C@H](NC(=O)NCC(=O)O)C(=O)O`, in assay [3], the inhibition came out at 46%. `O=C(O)CCC(CP(=O)(O)O)C(=O)O` (stereo unspecified) displayed an IC50 in assay [2] of 5.1 nM. `O=C(O)CC[C@H](NC(=O)C(=O)N[C@@H](CCC(=O)O)C(=O)O)C(=O)O` had an inhibition in assay [4] of 9%.

In turn, `CC(C)(C)NC(=O)N[C@@H](CCC(=O)O)C(=O)O` yielded an inhibition in assay [3] of 10%.

As for `O=C(O)CC[C@H](CP(=O)(O)C[C@@H](CCC(=O)O)C(=O)O)C(=O)O`, in assay [2], inhibition was half-maximal at 21.7 nM (IC50). Take `N[C@@H](CC(=O)O)C(=O)N[C@@H](CC(=O)O)C(=O)O` (H-Asp-Asp-OH): the inhibition in assay [5] is 42%. Consider `O=C(N[C@@H](CS)C(=O)O)N[C@@H](CS)C(=O)O`, for which the IA result in assay [6] was “inactive”.

As to `CC(C)(C)SCC(NC(=O)N[C@@H](CCC(=O)O)C(=O)O)C(=O)O` (stereo partly specified), the midpoint of inhibition in assay [2], the IC50, lay at 29 nM. This counts as double-digit nanomolar.
